{"source": "patent US11591634B1", "about": "“Forecasting bacterial survival-success and adaptive evolution through multiomics stress-response mapping and machine learning” (priority 2019, dated 2023)", "key": {"[1]": {"tested_on": "S. pneumoniae strain TIGR4 (T4)", "assay": "Determination of relative minimal inhibitory concentration (MIC)", "format": "cell-based, Streptococcus pneumoniae", "details": "Streptococcus pneumoniae, lowest concentration that abolishes bacterial growth, 16 hours, 37° C., read-out: 1x MIC for T4", "protocol": "(§1) Each concentration was tested in triplicate. Growth was monitored on a Tecan Infinite 200 PRO plate reader at 37° C. for 16 hours. MIC is determined as the lowest concentration that abolishes bacterial growth (FIGS. 6A-6H)."}, "[2]": {"tested_on": "S. pneumoniae strain Taiwan-19F (19F)", "assay": "Determination of relative minimal inhibitory concentration (MIC)", "format": "cell-based, Streptococcus pneumoniae", "details": "Streptococcus pneumoniae, 16 h, read-out: 1x MIC for 19F", "protocol": "as §1"}, "A. baumannii ATCC 17978 [3]": {"tested_on": "A. baumannii ATCC 17978", "assay": "Ciprofloxacin MIC determination by growth curves", "format": "cell-based", "details": "Acinetobacter baumannii, ATCC17978, read-out: measured MIC", "protocol": "as §1"}, "A. baumannii LAC-4": {"tested_on": "A. baumannii LAC-4", "assay": "Ciprofloxacin MIC determination by growth curves", "format": "cell-based", "details": "Acinetobacter baumannii, LAC4, read-out: measured MIC", "protocol": "as §1"}, "A. baumannii ATCC 17978 [4]": {"tested_on": "A. baumannii ATCC 17978", "assay": "Single time-point entropy (RNA-Seq) with linear regression MIC prediction", "format": "cell-based", "details": "Acinetobacter baumannii, ATCC17978, 2 h; read-out: predicted MIC (linear regression model on entropy)"}, "S. pneumoniae 19F": {"tested_on": "S. pneumoniae 19F", "assay": "Fitness outcome under antibiotic exposure (growth curve assay)", "format": "cell-based, Streptococcus pneumoniae", "protocol": "(§2) To test whether a gene-panel model can be trained that predicts fitness for many different conditions, a large RNA-Seq dataset was generated for the human pathogen Streptococcus pneumoniae. […] These include cell wall synthesis inhibitors (CWSI), DNA synthesis inhibitors (DSI), protein synthesis inhibitors (PSI) and RNA synthesis inhibitors ((RSI); FIG. 1A, Tables 1 & 2). Each strain was exposed to each antibiotic for 2 to 4 hours and cells were harvested for RNA-Seq at various time points. As T4 and 19F are susceptible to most antibiotics used, the transcriptional profiles in the presence of antibiotics mostly represent cases of low fitness (FIG. 1A, sensitive strain, 1xMICWT). In order to find patterns that differentiate fitness outcomes, adapted strains were generated with increased fitness in the presence of antibiotics by serial passaging wildtype T4 and 19F in the presence of increasing amounts of antibiotics. Four independent adapted populations for each strain were selected on individual antibiotics. These adapted strains could grow in the presence of antibiotic at 1.5xMIC of the wildtype strain, albeit with a small growth defect (FIGS. 6A-6E & 6F). In parallel, RNA-Seq was performed on S. pneumoniae strains D39 and T4 in a chemically defined medium, and media from which either uracil, Glycine or L-Valine was removed, which are essential for D39 but not T4. This enabled the potential identification of a common stress signature that is shared between antibiotic exposure and nutrient deprivation, and across multiple strains. Lastly, D39 was adapted to grow in the absence of each individual nutrient, after which RNA-Seq was repeated for adapted clones (Table 1 lists all 24 strains, 67 populations and 267 RNA-Seq experiments).\n(§3) S. pneumoniae strain TIGR4 (T4; NC_003028.3) is a serotype 4 strain originally isolated from a patient^3,4, Taiwan-19F (19F; NC_012469.1) is a multi-drug resistant strain^5,6 and D39 (NC_008533) is a commonly used serotype 2 strain originally isolated from a patient about 90 years ago^7. Strain PG1 and PG19 were isolated from adults with pneumococcal bacteremia infection and included in the Pneumococcal Bacteremia Collection Nijmegen (PBCN)^8. All S. pneumoniae gene numbers refer to the T4 genome. Correspondence between homologous genes among S. pneumoniae strains and gene function annotations are described herewith. Escherichia coli strain AR538, Klebsiella pneumoniae strain AR497 and Salmonella enterica subsp Typhimurium strain AR635 were clinical isolates obtained from the Center of Disease Control (CDC). Staphylococcus aureus strain MN6 was kindly provided by George Sakoulas (Center of Immunity, Infection & Inflammation, UCSD School of Medicine). Unless otherwise specified, S. pneumoniae strains were cultivated in Todd Hewitt medium with 5% yeast extract (THY) with 5 μL/mL oxyrase (Oxyrase, Inc) or on sheep's blood agar plates (Northeastern Laboratories) at 37° C. with 5% CO2. A. baumannii, E. coll. K. pneumoniae, S. aureus and S. Typhimurium were cultured in Mueller Hinton broth II (Sigma) at 37° C. with 220 rpm constant shaking. Tn-Seq and RNA-Seq experiments of S. pneumoniae under nutrient-depletion and antibiotic conditions were performed in chemically defined medium (CDM)^9 and semi-defined minimal medium (SDMM)^10, respectively. RNA-Seq experiments for A. baumannii, S. Typhimurium, E. coll. K. pneumoniae, and S. aureus were performed in Mueller Hinton broth II. Single strain growth assays were performed at least three times using 96-well plates by taking OD600 measurements on a Tecan Infinite 200 PRO plate reader."}, "S. pneumoniae T4": {"tested_on": "S. pneumoniae T4", "assay": "Fitness outcome under antibiotic exposure (growth curve assay)", "format": "cell-based, Streptococcus pneumoniae", "protocol": "as §2, §3"}, "[5]": {"tested_on": "antibiotic-adapted S. pneumoniae 19F (a19F)", "assay": "Fitness outcome under antibiotic exposure (growth curve assay)", "format": "cell-based, Streptococcus pneumoniae", "protocol": "as §2, §3\n(§4) D39 was used as the parental strain in nutrient-depletion evolution experiments; T4 and 19F were used as parental strains in antibiotic evolution experiments. […] Four replicate populations were serial passaged in CDM or SDMM as controls to identify background adaptations in nutrient or antibiotic adaptation experiments, respectively. […]"}, "[6]": {"tested_on": "antibiotic-adapted S. pneumoniae T4 (aT4)", "assay": "Fitness outcome under antibiotic exposure (growth curve assay)", "format": "cell-based, Streptococcus pneumoniae", "protocol": "as §2, §3, §4"}, "S. pneumoniae serotype 1": {"tested_on": "S. pneumoniae serotype 1", "assay": "Fitness outcome under ciprofloxacin (growth curve assay)", "format": "cell-based, Streptococcus pneumoniae", "details": "1 μg/mL ciprofloxacin", "protocol": "(§5) Since the single-timepoint variant of entropy is the most practical (in terms of data collection and cost), the generalizability of entropy to previously unseen species was evaluated using this model. RNA-Seq was performed at 120 min post exposure to 1 μg/mL of CIP. […] Single-timepoint entropy was computed for the transcriptome of each of these previously unseen isolates.\nas §3"}, "[7]": {"tested_on": "S. pneumoniae serotype 23F", "assay": "Fitness outcome under ciprofloxacin (growth curve assay)", "format": "cell-based, Streptococcus pneumoniae", "details": "S. pneumoniae 23F", "protocol": "as §5, §3"}, "[8]": {"tested_on": "Acinetobacter baumannii 17978", "assay": "Fitness outcome under ciprofloxacin (growth curve assay)", "format": "cell-based", "details": "A. baumannii 17978; 1 μg/mL ciprofloxacin", "source_text": "as §3, with “K. pneumoniae, S. aureus and S. Typhimurium were cultured in Mueller Hinton broth II (Sigma) at 37° C. with 220 rpm constant shaking. Tn-Seq and RNA-Seq experiments of S. pneumoniae under nutrient-depletion and antibiotic conditions were performed in chemically defined medium (CDM)^9 and semi-defined minimal medium (SDMM)^10, respectively. RNA-Seq experiments for A. baumannii, S. Typhimurium, E. coll. K. pneumoniae, and S. aureus were performed in Mueller Hinton broth II.” left out"}, "[9]": {"tested_on": "Acinetobacter baumannii LAC-4", "assay": "Fitness outcome under ciprofloxacin (growth curve assay)", "format": "cell-based", "details": "A. baumannii LAC-4; 1 μg/mL ciprofloxacin", "source_text": "as §3, with “K. pneumoniae, S. aureus and S. Typhimurium were cultured in Mueller Hinton broth II (Sigma) at 37° C. with 220 rpm constant shaking. Tn-Seq and RNA-Seq experiments of S. pneumoniae under nutrient-depletion and antibiotic conditions were performed in chemically defined medium (CDM)^9 and semi-defined minimal medium (SDMM)^10, respectively. RNA-Seq experiments for A. baumannii, S. Typhimurium, E. coll. K. pneumoniae, and S. aureus were performed in Mueller Hinton broth II.” left out"}}, "data": [{"smiles": "O=C(O)c1cn(C2CC2)c2cc(N3CCNCC3)c(F)cc2c1=O", "note": "[Ciprofloxacin, ciprofloxacin]", "values": [{"measurement": "MIC", "setting": "[1]", "result": 1, "unit": "µg/mL"}, {"measurement": "MIC", "setting": "[2]", "result": 1, "unit": "µg/mL"}, {"measurement": "MIC", "setting": "A. baumannii ATCC 17978 [3]", "result": 0.07, "unit": "µg/mL"}, {"measurement": "MIC", "setting": "A. baumannii LAC-4", "result": 8.5, "unit": "µg/mL"}, {"measurement": "MIC", "setting": "A. baumannii ATCC 17978 [4]", "result": 0.04, "unit": "µg/mL"}, {"measurement": "Fitness", "setting": "S. pneumoniae 19F; S. pneumoniae 19F wild-type, growth curves", "result": "Low"}, {"measurement": "Survive (real survival outcome)", "setting": "S. pneumoniae 19F; strain 19F, Adapted FALSE, Concentration L (low)", "result": "FALSE"}, {"measurement": "Fitness", "setting": "S. pneumoniae T4; S. pneumoniae T4 wild-type, 1xMIC antibiotic, growth curves", "result": "Low"}, {"measurement": "Survive (real survival outcome)", "setting": "S. pneumoniae T4; strain T4, Adapted FALSE, Concentration L (low)", "result": "FALSE"}, {"measurement": "Fitness", "setting": "[5]; a19F, 19F adapted to the respective antibiotic, 1xMIC and 1.5-2xMIC, growth curves", "result": "High"}, {"measurement": "Survive (real survival outcome)", "setting": "[5]; strain 19F, Adapted TRUE, Concentration L (low)", "result": "TRUE"}, {"measurement": "Fitness", "setting": "[6]; aT4, T4 adapted to the respective antibiotic, 1xMIC and 1.5-2xMIC, growth curves", "result": "High"}, {"measurement": "Survive (real survival outcome)", "setting": "[6]; strain T4, Adapted TRUE, Concentration L (low)", "result": "TRUE"}, {"measurement": "Fitness", "setting": "S. pneumoniae serotype 1", "result": "Low"}, {"measurement": "Fitness", "setting": "S. pneumoniae serotype 1; listed as ciprofloxacin", "result": "low fitness"}, {"measurement": "Fitness", "setting": "[7]; 1 μg/mL ciprofloxacin", "result": "High"}, {"measurement": "Fitness", "setting": "[7]; 1 μg/mL ciprofloxacin, listed as CIP", "result": "insensitive"}, {"measurement": "Fitness", "setting": "[7]; 1 μg/mL ciprofloxacin, listed as ciprofloxacin", "result": "high fitness"}, {"measurement": "Fitness", "setting": "[7]; strain-specific 1xMIC of ciprofloxacin", "result": "Low,"}, {"measurement": "Fitness", "setting": "[8]", "result": "Low"}, {"measurement": "Fitness", "setting": "[9]", "result": "High"}]}]}
